Source: US20060147924A1, “Population of nucleic acids including a subpopulation of lna oligomers” (priority 2002, published 2006)

Legend:
3′-ctgtatcc = assay: Thermal denaturation (Tm) of duplexes with complementary DNA 3′-ctgtatcc; type: binding; conditions: Table 8; duplexes 2.5 μM; 0.1 M NaCl, 10 mM Na-phosphate pH 7.0, 10 mM EDTA
Protocol: The complexing properties of oligonucleotides containing new LNA monomers 1-3 were assessed. Comparative binding data from an 8-mer LNA sequence is shown in Table 4 as the melting temperatures against complementary single-stranded DNA. An exemplary sequence for this comparison is GACATAGG, which is the central part of a capture probe used for SNP detection in GluclVS7-7asA (A:a mismatch position). The thermal stabilities of reference DNA duplexes (entries 1-7, Table 4) can be directly compared with their LNA counterparts (entries 8-14). […] The average melting temperatures of DNA and LNA 8-mers against complementary DNAs typically differ by about 40° C. […] (i.e., entries 1 and 4). D-nucleosides may facilitate a B to A helix transition, because the A-type structure of an LNA:DNA duplex is more suitable for effective D:t pairing. This stabilizing effect is expected to be even more pronounced for LNA:RNA duplexes, which can be very useful for construction of antisense or other gene-silencing reagents. The mismatch discrimination ability of the D-nucleoside was also studied (entry 11).
The absorbance was monitored at 260 nm while raising the temperature at a rate of 1° C. per min. The melting temperatures (Tm values) of the duplexes were determined as the maximum of the first derivatives of the melting curves obtained.

3′-TGTATC = assay: Tm of duplexes of 6-mers with LNA 3′-TGTATC; type: binding; conditions: Table 8; duplexes 2.5 μM; 0.1 M NaCl, 10 mM Na-phosphate pH 7.0, 10 mM EDTA
Protocol: (§1) (entry 1) to 53.5° C. (entry 2) thus verifying the reduced strength of the intramolecular hydrogen bonds of the self complementary oligonucleotide. At the same time the oligonucleotides containing the SBC LNA monomers are able to hybridize to complementary DNA due to the increased binding efficiency of LNA-D and LNA-^2SU. Similarly as exemplified in Table 8 (see below) the Tm of a duplex between 2 complementary oligonucleotides containing e.g. 3 SBC LNA pairs (entry 3) is reduced to 59° C. from the corresponding non-SBC LNA duplex (82° C.-entry 1) while the single-stranded SBC LNA oligonucleotides still are capable to hybridize to complementary non-modified LNA oligonucleotides as well as DNA oligonucleotides with increased Tm.

3′-TG^2SUATC = assay: Tm of duplexes of 6-mers with SBC-LNA 3′-TG^2SUATC; type: binding; conditions: Table 8; duplexes 2.5 μM; 0.1 M NaCl, 10 mM Na-phosphate pH 7.0, 10 mM EDTA
Protocol: as §1

3′-^2SUG^2SUA^2SUC = assay: Tm of duplexes of 6-mers with SBC-LNA 3′-^2SUG^2SUA^2SUC; type: binding; conditions: Table 8; duplexes 2.5 μM; 0.1 M NaCl, 10 mM Na-phosphate pH 7.0, 10 mM EDTA
Protocol: as §1

[1] = system: self complementary duplex; assay: Tm of self complementary duplexes of dual labeled SBC-LNA probes; type: binding; conditions: Table 7, duplexes 2 μM, 0.1 M NaCl, 10 mM Na-phosphate pH 7.0, 1 mM EDTA
Protocol: as §1

3′-ACGACCAC-5′ = assay: Tm of LNA:DNA and DNA:DNA 8-mer duplexes, perfect match (Table 2); type: binding
Description: (§2) It is often difficult to design probes and primers with the same range of melting temperature due to the variance in A/T and G/C content of the probing sites. Highly A/T rich regions typically give lower Tm values. Furthermore, if single mismatches are to be resolved, G/T mismatches are known to contribute little to ΔTm. As discussed above, the use of LNA is a desirable way to solve problems related to multiplex use of primers and probes. LNA offers the possibility to adjust Tm and increase the ΔTm at the same time. LNA increases Tm with 4-8° C./substitution and Increases ΔTm in many cases with several 100% (Table 2 and FIG. 22).

3′-ACGGCCAC-5′ = assay: Tm of LNA:DNA and DNA:DNA 8-mer duplexes, single mismatch (Table 2); type: binding; conditions: for ΔTm: perfect match vs single mismatch
Description: as §2

aagagtccagtg = assay: Tm of chimeric LNA-DNA 12-mers, Gluc53as-A, perfect duplex; type: binding; conditions: Table 5, Gluc53as-A, duplexes 2 μM, buffer as Table 4
Protocol: (§3) The thermal denaturation experiments were performed on a Perkin-Elmer UV/VIS spectrometer fitted with a PTP-6 Peltier temperature-programming element using a medium salt buffer solution (10 mM sodium phosphate, 100 mM sodium chloride, 0.1 mM EDTA, pH 7.0). […] The absorbance was monitored at 260 nm while raising the temperature at a rate of 1° C. per min. The melting temperatures (Tm values) of the duplexes were determined as the maximum of the first derivatives of the melting curves obtained.

aagaggccagtg = assay: Tm of chimeric LNA-DNA 12-mers, Gluc53as-A, singly mismatched duplex; type: binding; conditions: for Tm (± 0.5° C.) of the duplexes with DNA oligonucleotide aagaggccagtg: Table 5, Gluc53as-A, singly mismatched, duplexes 2 μM, buffer as Table 4; for ΔTm between singly mismatched and perfect duplexes (Gluc53as-A): Table 5, value in brackets
Protocol: as §3

caacatcccaca = assay: Tm of chimeric LNA-DNA 12-mers, HNFas128A-2, perfect duplex; type: binding; conditions: Table 5, HNFas128A-2, perfect duplex; duplexes 2 μM; buffer as Table 4
Protocol: as §3

caacaacccaca = assay: Tm of chimeric LNA-DNA 12-mers, HNFas128A-2, singly mismatched duplex; type: binding; conditions: for Tm (± 0.5° C.) of the duplexes with DNA oligonucleotide caacaacccaca: Table 5, HNFas128A-2, singly mismatched, duplexes 2 μM, buffer as Table 4; for ΔTm between singly mismatched and perfect duplexes (HNFas128A-2): Table 5, value in brackets
Protocol: as §3

5′-ACATAG
Tm of the duplexes with 3′-ctgtatcc (3′-ctgtatcc): 27 °C
Tm of the duplexes with 3′-TGTATC (3′-TGTATC): 82 °C
Tm of the duplexes with 3′-TG^2SUATC (3′-TG^2SUATC): 85 °C
Tm of the duplexes with 3′-^2SUG^2SUA^2SUC (3′-^2SUG^2SUA^2SUC): 83 °C

5′-ACDTAG
Tm of the duplexes with 3′-ctgtatcc (3′-ctgtatcc): 37 °C
Tm of the duplexes with 3′-TGTATC (3′-TGTATC): 93 °C
Tm of the duplexes with 3′-TG^2SUATC (3′-TG^2SUATC): 75 °C
Tm of the duplexes with 3′-^2SUG^2SUA^2SUC (3′-^2SUG^2SUA^2SUC): 73 °C

5′-DCDTDG
Tm of the duplexes with 3′-ctgtatcc (3′-ctgtatcc): 55 °C
Tm of the duplexes with 3′-TGTATC (3′-TGTATC): >97 °C
Tm of the duplexes with 3′-TG^2SUATC (3′-TG^2SUATC): 95 °C
Tm of the duplexes with 3′-^2SUG^2SUA^2SUC (3′-^2SUG^2SUA^2SUC): 59 °C

5′-Fitc-tAAATTTTA-EQL
Tm ^a of self complementary duplexes [1]: >90 (94-96) ° C.
Tm ^a of self complementary duplexes ([1]; listed as Table 7 entry 1): 90 °C

5′-Fitc-tDDDt^2S U^2SU^2SUa-EQL
Tm ^a of self complementary duplexes [1]: 64.5 °C

5′-Fitc-taDDT^2SU^2SUta-EQL
Tm ^a of self complementary duplexes [1]: 53.5 °C

5′-TGCTGGTG-3′ [DNA 8-mer, reference compound]
Tm of LNA:DNA Duplexes, Perfect match 3′-ACGACCAC-5′ (3′-ACGACCAC-5′): 35 °C
Tm of LNA:DNA Duplexes, Single mismatch 3′-ACGGCCAC-5′ (3′-ACGGCCAC-5′): 25 °C
ΔTm (3′-ACGGCCAC-5′): 10 °C

5′-TGCTGGTG-3′ [LNA 8-mer]
Tm of LNA:DNA Duplexes, Perfect match 3′-ACGACCAC-5′ (3′-ACGACCAC-5′): 71 °C
Tm of LNA:DNA Duplexes, Single mismatch 3′-ACGGCCAC-5′ (3′-ACGGCCAC-5′): 45 °C
ΔTm (3′-ACGGCCAC-5′): 26 °C

Nc1ncc2ncn([C@@H]3O[C@@]4(CO)CO[C@@H]3[C@@H]4O)c2n1 [Compound 23, (1S,3R,4R,7S)-3-(2-aminopurin-9-yl)-7-hydroxy-1-hydroxymethyl-2,5-dioxabicyclo[2.2.1]heptane]
melting point: 227.5 to 229 °C (dec.)

cAmCtgGAmCtctt (CACTGGACTCTT; mixed-case modified oligonucleotide, notation key not given here) [chimeric LNA-DNA 12-mer, Gluc53as-A, with LNA-A]
Tm (± 0.5° C.) of the complementary duplexes with DNA oligonucleotide aagagtccagtg (aagagtccagtg): 61.5 °C
Tm (± 0.5° C.) of the duplexes with DNA oligonucleotide aagaggccagtg (aagaggccagtg): 50.6 °C
ΔTm between singly mismatched and perfect duplexes (Gluc53as-A) (aagaggccagtg): −10.9 °C

cAmCtgGDmCtctt
Tm (± 0.5° C.) of the complementary duplexes with DNA oligonucleotide aagagtccagtg (aagagtccagtg): 65.3 °C
Tm (± 0.5° C.) of the duplexes with DNA oligonucleotide aagaggccagtg (aagaggccagtg): 45.4 °C
ΔTm between singly mismatched and perfect duplexes (Gluc53as-A) (aagaggccagtg): −19.9 °C

tGtggGATGttg (TGTGGGATGTTG; chemistry not given here) [chimeric LNA-DNA 12-mer, HNFas128A-2, with LNA-A]
Tm (± 0.5° C.) of the complementary duplexes with DNA oligonucleotide caacatcccaca (caacatcccaca): 61.0 °C
Tm (± 0.5° C.) of the duplexes with DNA oligonucleotide caacaacccaca (caacaacccaca): 45.9 °C
ΔTm between singly mismatched and perfect duplexes (HNFas128A-2) (caacaacccaca): −15.1 °C

tGtggGDTGttg
Tm (± 0.5° C.) of the complementary duplexes with DNA oligonucleotide caacatcccaca (caacatcccaca): 65.5 °C
Tm (± 0.5° C.) of the duplexes with DNA oligonucleotide caacaacccaca (caacaacccaca): 49.7 °C
ΔTm between singly mismatched and perfect duplexes (HNFas128A-2) (caacaacccaca): −15.8 °C
